Results reported in publication PMC5992992, “Functional Consequences of the Postnatal Switch From Neonatal to Mutant Adult Glycine Receptor α1 Subunits in the Shaky Mouse Model of Startle Disease” (Frontiers in Molecular Neuroscience, 2018).

Tests used:
[1] = target: T1, glycine receptor α1 subunit (GlyR α1) (Mus musculus, UniProt Q64018); test: whole-cell patch-clamp dose-response of bath-applied glycine in brain stem slices
T1 construct: gene Glra1; native GlyRs in hypoglossal motoneurons of brain stem slices (Glra1+/+, P18-24); with GlyR β subunit (Glrb)

[2] = target: T2, glycine receptor α1 subunit (GlyR α1 Q177K, shaky) (Mus musculus, UniProt Q64018, Q205K); test: as above
T2 construct: gene Glra1; native GlyRs in hypoglossal motoneurons of brain stem slices (Glra1sh/sh, P18-24); with GlyR β subunit (Glrb)

NCC(=O)O [glycine]
EC50 [1]: 277 µM | EC50 [2]: 384 µM
